According to article PMC6801819, “Exogenous Iron Increases Fasciocidal Activity and Hepatocellular Toxicity of the Synthetic Endoperoxides OZ78 and MT04” (International Journal of Molecular Sciences, 2019):

Tests used:
[1] = tested on: HepG2 cells; test: Cellular ATP content (CellTiter-Glo); format: cell-based, human
Protocol: (§1) Stock solutions of the drugs tested were prepared in DMSO 100% (v/v).
(§2) In viability assays, HepG2 cells were treated with 0.1% Triton-X or 0.1% DMSO for positive or negative control, respectively.
To assess cellular ATP content, HepG2 cells were seeded in white-wall 96-well plates with a clear bottom (Nunc). One day after seeding, cells were treated with the respective drugs. […] Luminescence was measured using Tecan M200 Infinite Pro.

[2] = tested on: adult F. hepatica; test: In vitro/ex vivo adult worm viability assay; format: cell-based, Fasciola hepatica; details: iron or hemin with 1% DMSO, no drug, 48 h or 72 h
Protocol: The experiments were performed, as described previously. Adult F. hepatica were collected from bovine liver bile ducts obtained from the local slaughterhouse (Basel, Switzerland). After careful washing, a single adult worm was placed per well (6-well plate, Costar, MA, USA) containing 5.4 mL RPMI 1640 (Gibco, N.Y., USA), supplemented with 1% (v/v) antibiotics (50 µg/mL streptomycin and 50 U/mL penicillin), 1% (v/v) drug solution, […] Control worms were incubated in 1% (v/v) DMSO combined with iron or hemin. Experiments were conducted in triplicates and repeated once. Cultures were kept at 37 °C in an atmosphere of 5% CO2. The viabilities of treated and untreated worms were monitored at 0, 24, 48, and 72 h. Worms were examined by eye and/or using a dissecting microscope (20× lenses). The viability of adult flukes was scored using the following scale: 4: normal activity; movements were visible without a microscope, 3: reduced activities, 2: very weak activities detected only using microscopic magnification, and 1: death of worm (no movement observed for two min using a microscope).

[3] = tested on: HepG2 cells; test: Cellular reactive oxygen species (DCF-DA); format: cell-based, human
Protocol: Stock solutions of the drugs tested were prepared in DMSO 100% (v/v). […] LC-MS measurements confirmed the stability of the compounds (data not shown). Treatments with AS, MT04, or OZ78 (100 or 500 µM) were performed either alone or in combination with 8% (v/v) hemin or FeCl2 solution for 24 h. The final iron concentration used was 122 µM (stock 1.5 mM) based on previous in vitro studies with F. hepatica. Dichlorodihydrofluorescein diacetate (DCF-DA) dissolved in DMSO was used to assess cellular formation of reactive oxygen species (ROS). HepG2 cells were seeded in a black-wall 96 well plate with a clear bottom as described above. Briefly, 30 min before treatment started, DCF-DA was added to the cells at a final concentration of 25 µM. DCF-DA was removed completely before the drugs were added. ROS was measured after 90 min and 24 h of drug exposure using a Tecan M200 Infinite Pro (excitation 485 nm, emission 535 nm).

[4] = tested on: HepG2 cells; test: Adenylate kinase leakage (membrane integrity test); format: cell-based, human
Protocol: as §1, §2
The assay was used according to the protocol supplied by the manufacturer.

Molecule | impact on cellular ATP content [1] | viability of adult F. hepatica [2] | increase in ROS compared to DMSO, factor [3] | cytotoxicity (AK release) [4]
hemin [reference compound] | no impact on cellular ATP content | slight reduction in viability | – | –
[Cl][Fe][Cl] [Fe^2+, Fe(II)chloride] | no impact on cellular ATP content | slight reduction in viability | did not trigger ROS production | not cytotoxic
